Experimental data reported in patent publication US6481154B1, “Method of large-scale propagation of trees of genus Swietenia” (Sumitomo Forestry Co., Ltd., priority 2000, dated 2002).

Tests used:
Assay type in all cases: cell-based
[1] = system: single shoots of Swietenia macrophylla; assay: Rooting of single shoots on modified B5 rooting medium
Method: A large number of shoots obtained in (4) are cut to single shoots, which were then transplanted to a rooting medium. […] Culturing temperature was 26±2° C. under illumination of fluorescent lamps for 16 hours per day (3,000 to 9,000 Lux).

[2] = system: single shoots of Swietenia macrophylla; assay: Rooting condition (1): modified B5 medium for 3 months
Method: (§1) A large number of shoots obtained in (4) were cut to single shoots which were cultured in the following procedures:
(1) The single shoots were cultured on a modified B5 medium containing 0 to 10.0 mg/l of IBA for 3 months, while transplanting the shoots to a fresh medium of the same composition every month.
(§2) All the above (1)-(4) cultures were conducted under conditions wherein a temperature was 26±2° C., a humidity was 60 to 90% and a light intensity was 3,000 to 9,000 Lux. Further, all the modified media in the above (1)-(4) contained 2.8 g/l of gelright.

[3] = system: single shoots of Swietenia macrophylla; assay: Rooting conditions (4): modified B5, then modified MS, then modified B5, one month each
Method: as §1
(4) The single shoots were cultured on a modified B5 medium containing 0 to 10.0 mg/l of IBA for one month, then on a modified MS medium containing 0 to 10.0 mg/l of IBA for one month and further on a modified B5 medium containing 0 to 10.0 mg/l of IBA for one month.
as §2

## O=C(O)CCCc1c[nH]c2ccccc12 [IBA, 3-indole butyric acid]
[1]; 2.5 mg/l of IBA
  effectiveness for rooting: effective
[1]; 1.0 to 5.0 mg/l of IBA, one to two months after the start of culturing
  single shoots rooted: 18.5%
[1]; IBA 1.0 mg/l
  Number of rooted single shoots: 1/27
[1]; IBA 2.0 mg/l
  Number of rooted single shoots: 2/30
[1]; IBA 2.5 mg/l
  Number of rooted single shoots: 5/27
[1]; IBA 3.0 mg/l
  Number of rooted single shoots: 0/26
[1]; IBA 4.0 mg/l
  Number of rooted single shoots: 1/25
[1]; IBA 5.0 mg/l
  Number of rooted single shoots: 0/26
[1]; IBA 10.0 mg/l
  Number of rooted single shoots: 0/26
[2]; IBA 0.1 mg/l
  Rooting rate (%) For first one month: 0.0%
  Rooting rate (%) For second one month: 0.0%
  Rooting rate (%) For third one month: 0.0%
  Withering rate (%) For first one month: 84.6%
  Withering rate (%) For second one month: 100.0%
  Withering rate (%) For third one month: 100.0%
[2]; IBA 1.0 mg/l
  Rooting rate (%) For first one month: 0.0%
  Rooting rate (%) For second one month: 3.7%
  Rooting rate (%) For third one month: 3.7%
  Withering rate (%) For first one month: 14.8%
  Withering rate (%) For second one month: 55.6%
  Withering rate (%) For third one month: 96.3%
[2]; IBA 2.0 mg/l
  Rooting rate (%) For first one month: 0.0%
  Rooting rate (%) For second one month: 6.7%
  Rooting rate (%) For third one month: 6.7%
  Withering rate (%) For first one month: 13.3%
  Withering rate (%) For second one month: 40.0%
  Withering rate (%) For third one month: 73.3%
[2]; IBA 2.5 mg/l
  Rooting rate (%) For first one month: 0.0%
  Rooting rate (%) For second one month: 18.5%
  Rooting rate (%) For third one month: 18.5%
  Withering rate (%) For first one month: 11.1%
  Withering rate (%) For second one month: 40.7%
  Withering rate (%) For third one month: 66.7%
[2]; IBA 3.0 mg/l
  Rooting rate (%) For first one month: 0.0%
  Rooting rate (%) For second one month: 0.0%
  Rooting rate (%) For third one month: 0.0%
  Withering rate (%) For first one month: 26.9%
  Withering rate (%) For second one month: 57.7%
  Withering rate (%) For third one month: 73.1%
[2]; IBA 4.0 mg/l
  Rooting rate (%) For first one month: 0.0%
  Rooting rate (%) For second one month: 4.0%
  Rooting rate (%) For third one month: 4.0%
  Withering rate (%) For first one month: 40.0%
  Withering rate (%) For second one month: 72.0%
  Withering rate (%) For third one month: 100.0%
[2]; IBA 5.0 mg/l
  Rooting rate (%) For first one month: 0.0%
  Rooting rate (%) For second one month: 0.0%
  Rooting rate (%) For third one month: 0.0%
  Withering rate (%) For first one month: 53.8%
  Withering rate (%) For second one month: 84.6%
  Withering rate (%) For third one month: 100.0%
[2]; IBA 10.0 mg/l
  Rooting rate (%) For first one month: 0.0%
  Rooting rate (%) For second one month: 0.0%
  Rooting rate (%) For third one month: 0.0%
  Withering rate (%) For first one month: 80.8%
  Withering rate (%) For second one month: 96.2%
  Withering rate (%) For third one month: 100.0%
[3]; IBA 0.1 mg/l
  Rooting rate (%) For first one month: 0.0%
  Rooting rate (%) For second one month: 0.0%
  Rooting rate (%) For third one month: 0.0%
  Withering rate (%) For first one month: 84.6%
  Withering rate (%) For second one month: 88.5%
  Withering rate (%) For third one month: 100.0%
[3]; IBA 1.0 mg/l
  Rooting rate (%) For first one month: 0.0%
  Rooting rate (%) For second one month: 0.0%
  Rooting rate (%) For third one month: 10.0%
  Withering rate (%) For first one month: 10.0%
  Withering rate (%) For second one month: 50.0%
  Withering rate (%) For third one month: 70.0%
[3]; IBA 2.0 mg/l
  Rooting rate (%) For first one month: 0.0%
  Rooting rate (%) For second one month: 10.0%
  Rooting rate (%) For third one month: 10.0%
  Withering rate (%) For first one month: 0.0%
  Withering rate (%) For second one month: 40.0%
  Withering rate (%) For third one month: 50.0%
[3]; IBA 2.5 mg/l
  Rooting rate (%) For first one month: 0.0%
  Rooting rate (%) For second one month: 30.0%
  Rooting rate (%) For third one month: 50.0%
  Withering rate (%) For first one month: 0.0%
  Withering rate (%) For second one month: 40.0%
  Withering rate (%) For third one month: 40.0%
[3]; IBA 3.0 mg/l
  Rooting rate (%) For first one month: 0.0%
  Rooting rate (%) For second one month: 10.0%
  Rooting rate (%) For third one month: 20.0%
  Withering rate (%) For first one month: 0.0%
  Withering rate (%) For second one month: 60.0%
  Withering rate (%) For third one month: 70.0%
[3]; IBA 4.0 mg/l
  Rooting rate (%) For first one month: 0.0%
  Rooting rate (%) For second one month: 0.0%
  Rooting rate (%) For third one month: 0.0%
  Withering rate (%) For first one month: 40.0%
  Withering rate (%) For second one month: 70.0%
  Withering rate (%) For third one month: 100.0%
[3]; IBA 5.0 mg/l
  Rooting rate (%) For first one month: 0.0%
  Rooting rate (%) For second one month: 0.0%
  Rooting rate (%) For third one month: 0.0%
  Withering rate (%) For first one month: 50.0%
  Withering rate (%) For second one month: 90.0%
  Withering rate (%) For third one month: 100.0%
[3]; IBA 10.0 mg/l
  Rooting rate (%) For first one month: 0.0%
  Rooting rate (%) For second one month: 0.0%
  Rooting rate (%) For third one month: 0.0%
  Withering rate (%) For first one month: 70.0%
  Withering rate (%) For second one month: 100.0%
  Withering rate (%) For third one month: 100.0%
